Test results as given in PubChem BioAssay (NCI).
Where “and” joins values, the source holds several entries; their conditions need not be identical. Equal entries are not always repeated.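 Tested at 5 concentrations; 48 h exposure; 96-well plates; endpoints linearly interpolated, else capped at highest concentration. Abbreviation: GI50, concentration required for 50% inhibition of growth. The concentration for full growth arrest is given as TGI.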

What was measured:
Experiment in all cases: DTP human tumour cell line panel, 48 h
A549 NSCLC = test system: A549 NSCLC
HOP-62 NSCLC = test system: HOP-62 NSCLC
HT29 colon = test system: HT29 colon
K-562 leukemia = test system: K-562 leukemia
MDA-MB-435 = test system: MDA-MB-435
OVCAR-3 ovarian = test system: OVCAR-3 ovarian
SF-295 CNS = test system: SF-295 CNS
SF-539 CNS = test system: SF-539 CNS
SK-MEL-2 melanoma = test system: SK-MEL-2 melanoma
UACC-62 melanoma = test system: UACC-62 melanoma

Structure (SMILES) | GI50 (A549 NSCLC) | TGI (A549 NSCLC) | GI50 (HOP-62 NSCLC) | TGI (HOP-62 NSCLC) | GI50 (HT29 colon) | TGI (HT29 colon) | GI50 (K-562 leukemia) [µM] | TGI (K-562 leukemia) | GI50 (MDA-MB-435) [µM] | TGI (MDA-MB-435) | GI50 (OVCAR-3 ovarian) | TGI (OVCAR-3 ovarian) | GI50 (SF-295 CNS) | TGI (SF-295 CNS) | GI50 (SF-539 CNS) [µM] | TGI (SF-539 CNS) [µM] | GI50 (SK-MEL-2 melanoma) [µM] | TGI (SK-MEL-2 melanoma) | GI50 (UACC-62 melanoma) [µM] | TGI (UACC-62 melanoma)
NNCCc1ccc(NC(=O)CCCc2ccc(C(=O)Nc3ccccc3N)cc2)cc1 | 31.9 µM | > 100 µM | 10.8 µM | > 100 µM | 4.07 µM | > 100 µM | 3.58 | > 100 µM | 9.71 | > 100 µM | 9.42 µM | > 100 µM | 13.3 µM | > 100 µM | 9.57 | > 100 | 7.49 | > 100 µM | 3.79 | 31.8 µM
CC(C)CC(C/C=C1/CC(CO)(COC(=O)C(C)(C)C)OC1=O)CC(C)C (stereo not given) | 1.07 µM and 0.515 µM | 16.1 µM and 11.2 µM | 10.8 µM and 1.92 µM | 31.7 µM and 20.1 µM | 10.3 µM and 2.55 µM | 23.2 µM and 18.6 µM |  | 27.4 µM and > 37.5 µM |  | 18.3 µM and 15 µM | 14.9 µM and 5.32 µM | 36.6 µM and 18.8 µM | 12.2 µM and 1.7 µM | 36.7 µM and 12.7 µM |  | 21.3 |  | 30.3 µM and 24.3 µM |  | 28.8 µM and 24.1 µM
COc1ccc(-c2nccn2-c2ccc(OC)cc2)cc1 | 25.1 µM | > 80.5 µM | 22 µM | 74.4 µM | 13 µM | 32.9 µM | 6.43 | 61.4 µM | 7.53 | 35.1 µM | 21.6 µM | 62.6 µM | 21 µM | 74.2 µM | 28 | 90.4 | 25.3 | > 73.5 µM | 13.9 | 48.9 µM
CCCC/C(=C\C1=C(C)C(=O)C(OC)=C(OC)C1=O)C(=O)O | > 100 µM | > 100 µM | > 100 µM | > 100 µM | > 100 µM | > 100 µM | 50.1 | > 100 µM | > 100 | > 100 µM | > 100 µM | > 100 µM | > 100 µM | > 100 µM | > 100 | > 100 | > 100 | > 100 µM | > 100 | > 100 µM
C#CCOc1cccc(Nc2ncnc3c(NC(=O)C=C)cccc23)c1 | 30.9 µM | > 100 µM | 27.8 µM | > 100 µM | 19.3 µM | 98.8 µM | 7.87 | > 100 µM | 7.14 | 77.7 µM | 16.5 µM | 91.5 µM | 27.4 µM | > 100 µM | 14 | 36 | 19.8 | 63.7 µM | 12.3 | 37.3 µM
CCc1ccc2c(c1)C(=O)c1c-2n(CCCN=[N+]=[N-])c(=O)c2cc([N+](=O)[O-])ccc12 | > 50 µM | > 50 µM | > 50 µM | > 50 µM | > 50 µM | > 50 µM | > 50 | > 50 µM | > 50 | > 50 µM | > 50 µM | > 50 µM | > 50 µM | > 50 µM | > 50 | > 50 | > 50 | > 50 µM | > 50 | > 50 µM
CCN(CC)CCCCCCNc1cccc2cc(Br)cnc12 | 8.07 µM | 22.6 µM | 10 µM | 23.4 µM | 1.88 µM | 4.32 µM | 2.08 | 5.59 µM | 3.76 | 12.9 µM | 8.63 µM | 24.8 µM | 2.88 µM | 10 µM | 6.47 | 20.8 | 5.01 | 18 µM | 2.07 | 4.7 µM
COC(c1ccc(C(C)(C)C)cc1)(c1ccc(C(C)(C)C)cc1)c1ccc(C(C)(C)C)cc1 |  | > 100 µM |  | > 100 µM |  | > 100 µM |  | > 100 µM |  | > 100 µM |  | > 100 µM |  | > 100 µM |  | > 100 |  | > 100 µM |  | > 100 µM
COc1ccc(C(=O)c2cc(OC)c(OC)c(OC)c2)cc1OC |  | > 100 µM |  | > 100 µM |  | 9.75 µM |  | > 100 µM |  | 1.89 µM |  | 9.47 µM |  | 4.27 µM |  | 5.14 |  | > 100 µM |  | > 100 µM
O=C(c1ccco1)c1c(C(F)(F)F)n([O-])c2ccc(C(F)(F)F)cc2[n+]1=O | 0.254 µM | 0.7 µM | 1.47 µM | 2.95 µM | 0.243 µM | 0.674 µM | 0.287 | 0.765 µM | 1.16 | 2.56 µM | 0.383 µM | 0.835 µM | 0.626 µM | 1.71 µM | 0.475 | 0.91 | 1.71 | 3.49 µM | 1.11 | 2.32 µM
CCCc1cc(=O)n2c(C(=O)Nc3ccc(Cl)cc3C)c(C(=O)Nc3ccc(F)cc3)sc2n1 | 2.63 µM | 5.95 µM | 1.54 µM | 3.95 µM | 12.2 µM | > 150 µM | 1.08 | 20.3 µM | 20.9 | > 150 µM | 3.35 µM | 8.33 µM | 31.7 µM | 131 µM | 6.02 | 22.7 | 4.13 | 21.9 µM | 2.02 | 12.1 µM
CCCCCCCCCCNC(=O)CI | 5.44 µM | 21.9 µM | 1.95 µM | 4.04 µM | 1.98 µM | 3.76 µM | 0.938 | 3.95 µM | 1.97 | 4.51 µM | 1.87 µM | 3.44 µM | 4.58 µM | 13.2 µM | 1.78 | 3.22 | 1.94 | 4.02 µM | 1.69 | 3.28 µM
Nc1cc(Br)c(-c2nnc(CCC(=O)c3nc4ccccc4[nH]3)o2)c(Br)c1 | 27.6 µM | > 100 µM | 23.7 µM | > 100 µM | 19.2 µM | 83.5 µM | 2.89 | > 100 µM | 1.56 | 3.71 µM | 2.6 µM | 6.98 µM | 9.78 µM | 35.6 µM | 17.3 | 60.8 | 4.3 | > 100 µM | 5.37 | > 100 µM
O=C1Nc2ccccc2/C1=C1\CCc2cc(O)ccc21 | 9.45 µM | > 25 µM | 9.95 µM | > 25 µM | 9.77 µM | > 25 µM | 9.09 | > 25 µM | 2.24 | > 25 µM | 9.95 µM | > 25 µM | 11.3 µM | > 25 µM | 9.64 | > 25 | 9.99 | > 25 µM | 7.73 | > 25 µM
